Our source for the IC50 and EC50 values is ChEMBL document CHEMBL1201862, “PubChem BioAssay data set” (2004).

Usually IC50 stands for the concentration that inhibits the measured activity by half. Usually EC50 stands for the concentration needed to bring the measured effect to its halfway point.

For experiment [1], the target named is T1, Apoptotic protease-activating factor 1 (Homo sapiens, UniProt O14727).
T1 sequence (O14727 whole entry): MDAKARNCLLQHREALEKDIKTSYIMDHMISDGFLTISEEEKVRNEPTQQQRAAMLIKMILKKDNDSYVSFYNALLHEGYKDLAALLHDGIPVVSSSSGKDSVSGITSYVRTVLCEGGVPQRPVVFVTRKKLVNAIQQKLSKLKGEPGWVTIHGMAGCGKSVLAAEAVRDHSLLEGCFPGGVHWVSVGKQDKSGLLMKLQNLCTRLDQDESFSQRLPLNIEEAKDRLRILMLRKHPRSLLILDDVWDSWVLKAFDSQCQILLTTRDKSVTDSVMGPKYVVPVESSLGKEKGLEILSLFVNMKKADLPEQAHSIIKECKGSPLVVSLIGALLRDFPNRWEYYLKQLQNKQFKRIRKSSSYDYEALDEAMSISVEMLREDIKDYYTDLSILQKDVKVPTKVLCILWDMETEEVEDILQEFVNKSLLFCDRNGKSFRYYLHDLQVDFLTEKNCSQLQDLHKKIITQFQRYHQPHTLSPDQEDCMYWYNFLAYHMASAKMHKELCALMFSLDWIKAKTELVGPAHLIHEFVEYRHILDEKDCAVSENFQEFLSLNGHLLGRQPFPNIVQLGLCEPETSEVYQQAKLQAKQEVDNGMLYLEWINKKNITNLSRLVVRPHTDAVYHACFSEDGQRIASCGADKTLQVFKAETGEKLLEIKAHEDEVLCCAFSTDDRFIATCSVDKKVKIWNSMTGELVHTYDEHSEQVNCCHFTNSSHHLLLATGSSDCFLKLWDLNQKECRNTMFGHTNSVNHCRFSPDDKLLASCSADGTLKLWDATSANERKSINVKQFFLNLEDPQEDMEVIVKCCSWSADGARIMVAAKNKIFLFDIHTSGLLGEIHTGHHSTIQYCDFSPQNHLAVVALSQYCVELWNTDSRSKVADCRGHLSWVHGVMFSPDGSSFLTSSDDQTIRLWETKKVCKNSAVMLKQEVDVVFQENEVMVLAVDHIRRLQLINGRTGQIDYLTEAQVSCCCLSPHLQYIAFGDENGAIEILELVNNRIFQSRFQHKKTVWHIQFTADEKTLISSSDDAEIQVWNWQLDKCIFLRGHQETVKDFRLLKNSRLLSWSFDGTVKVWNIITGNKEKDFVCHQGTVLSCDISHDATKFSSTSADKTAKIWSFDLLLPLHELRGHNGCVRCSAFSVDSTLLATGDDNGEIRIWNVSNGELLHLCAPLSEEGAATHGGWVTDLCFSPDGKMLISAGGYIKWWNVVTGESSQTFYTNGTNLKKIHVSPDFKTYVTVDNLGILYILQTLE
In kind it is functional.

Experiment [2] concerns the target ATP-dependent molecular chaperone HSP82 (Candida albicans (strain WO-1) (Yeast), UniProt C4YTQ8). In words: steroid-induced GRE reporter decrease in yeast – S. cerevisiae, luminescence, Hsp90 inhibitor project, dose response (AID 2400).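 Also: beta-galactosidase luminescence from glucocorticoid response element reporter as proxy for Hsp90 function; inhibitor potency where signal loss means Hsp90 inhibition.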 It is filed as functional, cell-based.
For experiment [3], the target named is T2, Serine/threonine-protein phosphatase (Candida dubliniensis (strain CD36 / CBS 7987 / NCPF 3949 / NRRLY-17841) (Yeast), UniProt B9W6M3).
T2 sequence (B9W6M3 whole entry): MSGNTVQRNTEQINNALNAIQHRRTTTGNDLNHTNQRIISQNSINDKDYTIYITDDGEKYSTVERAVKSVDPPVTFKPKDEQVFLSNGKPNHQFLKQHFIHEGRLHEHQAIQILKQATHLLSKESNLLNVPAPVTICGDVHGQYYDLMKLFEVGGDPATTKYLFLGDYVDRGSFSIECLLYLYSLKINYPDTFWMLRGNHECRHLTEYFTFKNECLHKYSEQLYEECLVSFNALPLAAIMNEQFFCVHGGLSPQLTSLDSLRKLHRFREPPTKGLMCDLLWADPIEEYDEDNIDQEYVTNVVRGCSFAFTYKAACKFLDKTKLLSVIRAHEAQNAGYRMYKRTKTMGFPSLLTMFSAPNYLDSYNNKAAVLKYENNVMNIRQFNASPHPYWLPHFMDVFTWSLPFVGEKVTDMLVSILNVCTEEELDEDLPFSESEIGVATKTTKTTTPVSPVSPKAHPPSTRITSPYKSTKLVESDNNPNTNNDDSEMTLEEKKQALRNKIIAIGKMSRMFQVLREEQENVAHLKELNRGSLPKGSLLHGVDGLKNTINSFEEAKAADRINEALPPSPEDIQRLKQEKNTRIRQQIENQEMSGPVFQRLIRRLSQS
The experiment can be described thus: blockers of CaCl2-induced CDRE-lacZ signaling – S. cerevisiae, luminescence, secondary, dose response (AID 2388).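 Also: yeast reporter cells carrying a calcineurin-responsive lacZ construct stimulated with calcium chloride; luminescent beta-galactosidase reporter signal in whole cells rather than isolated phosphatase activity; potency for inhibition where a drop in reporter signal means calcineurin blockade.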 In kind it is functional, cell-based.

In the next experiment the target is T3, Exodeoxyribonuclease V (Escherichia coli (strain K12), UniProt P04993+P07648+P08394).
T3 sequence (P04993 whole entry): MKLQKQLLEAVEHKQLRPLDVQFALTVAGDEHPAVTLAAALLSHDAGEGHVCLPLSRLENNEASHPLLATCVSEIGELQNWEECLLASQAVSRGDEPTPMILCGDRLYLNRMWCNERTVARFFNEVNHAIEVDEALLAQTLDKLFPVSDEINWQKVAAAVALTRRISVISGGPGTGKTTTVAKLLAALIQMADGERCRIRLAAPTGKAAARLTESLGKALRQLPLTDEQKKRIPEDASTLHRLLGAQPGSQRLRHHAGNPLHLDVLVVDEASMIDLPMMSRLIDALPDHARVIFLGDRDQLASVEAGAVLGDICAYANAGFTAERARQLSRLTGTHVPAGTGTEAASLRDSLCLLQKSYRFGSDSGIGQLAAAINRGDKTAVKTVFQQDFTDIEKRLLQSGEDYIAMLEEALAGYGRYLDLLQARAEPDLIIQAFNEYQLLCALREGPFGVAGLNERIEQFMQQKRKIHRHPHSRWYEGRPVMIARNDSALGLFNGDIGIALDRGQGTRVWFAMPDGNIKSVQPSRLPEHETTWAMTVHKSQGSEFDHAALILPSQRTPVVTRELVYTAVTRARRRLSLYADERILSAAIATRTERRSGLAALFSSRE
T3 sequence (P07648 whole entry): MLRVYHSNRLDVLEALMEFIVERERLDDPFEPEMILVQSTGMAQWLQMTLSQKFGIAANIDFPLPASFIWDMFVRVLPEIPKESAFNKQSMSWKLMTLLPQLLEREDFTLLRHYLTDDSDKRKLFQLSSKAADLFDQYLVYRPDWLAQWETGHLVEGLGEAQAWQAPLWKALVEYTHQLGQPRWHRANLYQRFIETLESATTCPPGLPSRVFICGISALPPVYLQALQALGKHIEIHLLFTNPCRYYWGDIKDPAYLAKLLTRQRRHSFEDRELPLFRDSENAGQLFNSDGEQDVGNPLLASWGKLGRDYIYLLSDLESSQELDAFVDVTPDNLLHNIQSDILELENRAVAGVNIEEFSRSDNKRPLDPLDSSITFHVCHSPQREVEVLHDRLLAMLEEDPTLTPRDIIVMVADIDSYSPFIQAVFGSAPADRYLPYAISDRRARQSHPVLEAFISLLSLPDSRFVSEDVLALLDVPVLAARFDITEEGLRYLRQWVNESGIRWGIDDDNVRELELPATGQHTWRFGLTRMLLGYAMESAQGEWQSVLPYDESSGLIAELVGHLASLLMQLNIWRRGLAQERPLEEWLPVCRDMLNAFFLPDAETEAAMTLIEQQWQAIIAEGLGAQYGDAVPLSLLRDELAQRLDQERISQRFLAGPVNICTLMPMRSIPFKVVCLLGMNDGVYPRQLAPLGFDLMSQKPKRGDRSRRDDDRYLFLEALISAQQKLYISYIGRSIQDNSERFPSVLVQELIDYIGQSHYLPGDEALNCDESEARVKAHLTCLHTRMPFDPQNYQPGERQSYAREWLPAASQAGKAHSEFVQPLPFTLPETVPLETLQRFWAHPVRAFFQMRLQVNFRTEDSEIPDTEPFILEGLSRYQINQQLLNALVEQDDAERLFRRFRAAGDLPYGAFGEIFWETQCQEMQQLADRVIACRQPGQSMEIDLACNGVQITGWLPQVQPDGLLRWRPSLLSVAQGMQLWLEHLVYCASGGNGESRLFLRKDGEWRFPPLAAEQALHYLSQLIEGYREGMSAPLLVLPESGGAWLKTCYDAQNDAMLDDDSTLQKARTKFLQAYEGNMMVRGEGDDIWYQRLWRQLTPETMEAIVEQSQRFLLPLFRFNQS
T3 sequence (P08394 whole entry): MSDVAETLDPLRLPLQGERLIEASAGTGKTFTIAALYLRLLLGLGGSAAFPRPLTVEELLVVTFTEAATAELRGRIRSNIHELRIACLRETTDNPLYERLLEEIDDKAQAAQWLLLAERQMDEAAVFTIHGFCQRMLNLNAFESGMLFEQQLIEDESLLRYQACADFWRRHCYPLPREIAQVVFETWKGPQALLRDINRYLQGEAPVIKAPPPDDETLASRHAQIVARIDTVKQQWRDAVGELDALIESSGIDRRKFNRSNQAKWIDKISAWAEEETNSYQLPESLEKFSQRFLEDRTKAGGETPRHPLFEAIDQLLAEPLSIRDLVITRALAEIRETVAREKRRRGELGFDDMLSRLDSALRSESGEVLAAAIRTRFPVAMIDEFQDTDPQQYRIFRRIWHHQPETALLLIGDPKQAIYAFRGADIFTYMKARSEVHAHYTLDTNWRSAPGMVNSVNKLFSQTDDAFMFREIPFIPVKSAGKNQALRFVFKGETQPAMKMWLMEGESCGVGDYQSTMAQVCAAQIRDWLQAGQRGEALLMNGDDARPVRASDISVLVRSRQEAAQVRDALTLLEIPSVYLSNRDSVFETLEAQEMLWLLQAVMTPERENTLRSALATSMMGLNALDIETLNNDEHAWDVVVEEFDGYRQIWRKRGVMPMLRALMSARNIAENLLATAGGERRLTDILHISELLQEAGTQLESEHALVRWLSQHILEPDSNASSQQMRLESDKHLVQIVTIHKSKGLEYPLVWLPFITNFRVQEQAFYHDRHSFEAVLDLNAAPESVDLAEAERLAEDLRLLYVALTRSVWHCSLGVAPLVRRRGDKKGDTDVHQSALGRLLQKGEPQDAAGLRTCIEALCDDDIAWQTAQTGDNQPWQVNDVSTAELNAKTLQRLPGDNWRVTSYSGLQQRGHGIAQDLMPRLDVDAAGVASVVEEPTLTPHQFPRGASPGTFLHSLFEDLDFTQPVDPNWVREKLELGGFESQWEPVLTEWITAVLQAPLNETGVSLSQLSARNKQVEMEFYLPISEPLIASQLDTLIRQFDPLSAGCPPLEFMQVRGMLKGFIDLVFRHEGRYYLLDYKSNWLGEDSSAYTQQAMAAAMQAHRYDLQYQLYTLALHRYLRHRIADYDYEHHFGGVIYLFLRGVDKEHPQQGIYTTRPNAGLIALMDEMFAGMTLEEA
The experiment can be described thus: RecBCD inhibition via phage-restricted bacterial growth – absorbance, V66 E. coli, mutant T4 phage, counter-screen for AddAB inhibitor project, dose response (AID 492957). In kind it is functional, cell-based, Escherichia coli str. K-12 substr. MG1655. For orientation: Counterscreens check selectivity or assay interference.

Experiment [4] can be described thus: NIH-3T3 fibroblast cytotoxicity, dose response, cytotoxicity control, cell-based, fluorescence, Alamar Blue, secondary assay (AID 2327).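 Also: NIH-3T3 mouse fibroblasts cultured with fluconazole at 8 µg/mL.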 In kind it is functional. (In general: Alamar Blue is a resazurin reagent that responds to reducing activity.)
The nature of experiment [5]: fluconazole-exposed Candida albicans growth modulators – fluorescence, retest, confirmation (AID 2467). It is filed as functional, cell-based.
Experiment [6] in a line: Counterscreen for AddAB inhibitors: absorbance-based bacterial cell-based high throughput dose response assay for inhibitors of bacterial viability. [Related pubchem assays (depositor defined):AID435030, AID449728, AID449731, AID488942, AID488955, AID488956]. In kind it is functional.

Calls of active or inactive are those of the source. Rule as the data show it, for most assays here: actives have a measured EC50 and inactives only a lower limit. Bounds are passed on as bounds.

Sequence of ATP-dependent molecular chaperone HSP82 (C4YTQ8 whole entry): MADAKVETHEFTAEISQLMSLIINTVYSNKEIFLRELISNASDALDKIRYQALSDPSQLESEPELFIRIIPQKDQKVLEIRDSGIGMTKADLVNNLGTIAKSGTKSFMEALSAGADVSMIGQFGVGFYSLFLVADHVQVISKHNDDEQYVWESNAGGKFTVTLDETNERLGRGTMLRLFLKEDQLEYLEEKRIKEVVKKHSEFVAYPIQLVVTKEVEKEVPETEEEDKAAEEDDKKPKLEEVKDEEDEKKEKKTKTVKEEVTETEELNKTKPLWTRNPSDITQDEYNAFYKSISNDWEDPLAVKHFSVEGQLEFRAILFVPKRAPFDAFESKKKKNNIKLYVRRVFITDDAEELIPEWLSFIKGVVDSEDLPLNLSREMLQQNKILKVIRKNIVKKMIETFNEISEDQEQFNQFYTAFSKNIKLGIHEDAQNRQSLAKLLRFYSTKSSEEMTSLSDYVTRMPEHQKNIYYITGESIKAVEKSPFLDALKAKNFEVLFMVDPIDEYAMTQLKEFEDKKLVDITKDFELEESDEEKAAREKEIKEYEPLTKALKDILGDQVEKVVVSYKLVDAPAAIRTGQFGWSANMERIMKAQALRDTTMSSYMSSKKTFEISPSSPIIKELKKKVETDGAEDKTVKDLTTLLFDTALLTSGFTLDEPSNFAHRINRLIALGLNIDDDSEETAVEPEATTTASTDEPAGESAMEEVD

`COc1ccc(CC(=O)N(Cc2ccccc2)c2ccc(C)cc2)cc1S(=O)(=O)N1CCOCC1`: the IC50 in experiment [1] is 43.7 µM (active).
As to `CC(=O)NC1CCCN(O)C(=O)/C=C(\C)CCOC(=O)C(NC(C)=O)CCCN(O)C(=O)/C=C(\C)CCOC(=O)C(NC(C)=O)CCCN(O)C(=O)/C=C(\C)CCOC1=O` (configuration not stated), the EC50 in experiment [2] is > 160 µM (inactive); in experiment [3] it was > 180 µM (inactive); in experiment [4], > 160 µM (inactive); in experiment [5], 0.742 µM (active). The IC50 (on Exodeoxyribonuclease V; in experiment [6]) was > 119 µM (inactive) each time.
